Experimental findings from patent US5698532A, “Pyrimidine nucleosides and methods for treating viral infections with same” (priority 1995, dated 1997) are described below.

Where two headings read alike, the source gives them in different places.

Data set [1] deals with HSV-2 thymidine kinase (Human herpesvirus 2, UniProt P89446). The data set is described as follows: inhibition of HSV-2 thymidine kinase. The class given is biochemical. The procedure:
In this test procedure, the assay mixture contains 50 mmol Tris HCl, pH 8, 5 mmol magnesium chloride, 5 mmol ATP, 0.3 μmol ^3 H-thymidine (50 Ci/mmol), suitably diluted enzyme preparation and various concentrations of test compounds in a total volume of 100 μl. Assays are incubated at 37° C. for 30 minutes and the reaction is terminated by immersion in a boiling water bath for 2 minutes. 85 μl aliquots from each assay are then dried on to DEAE-cellulose paper discs and the unphosphorylated ^3 H-thymidine is removed by washing in 4 mmol ammonium formate. The radioactivity remaining bound to the discs is then measured by scintillation spectrophotometry. The degree of inhibition at each concentration of test compound is expressed as a percentage of the control reaction (100%) after subtracting a measured blank value which represents the amount of radioactivity bound to the disc from a reaction containing heat-inactivated enzymes. The lC50 value, namely the concentration of test compound which inhibits enzyme activity by 50%, is then calculated.

Data set [2] in a line: Oral bioavailability (rat). Type of data set: in vivo. As to conditions: for bioavailability: in vivo, po.
Setting [3] is: 37° C., 30 minutes, pH 8, 3H-thymidine, read-out: Activity against HSV-2 TK, IC50.

HSV-2 thymidine kinase, sequence (P89446 whole entry): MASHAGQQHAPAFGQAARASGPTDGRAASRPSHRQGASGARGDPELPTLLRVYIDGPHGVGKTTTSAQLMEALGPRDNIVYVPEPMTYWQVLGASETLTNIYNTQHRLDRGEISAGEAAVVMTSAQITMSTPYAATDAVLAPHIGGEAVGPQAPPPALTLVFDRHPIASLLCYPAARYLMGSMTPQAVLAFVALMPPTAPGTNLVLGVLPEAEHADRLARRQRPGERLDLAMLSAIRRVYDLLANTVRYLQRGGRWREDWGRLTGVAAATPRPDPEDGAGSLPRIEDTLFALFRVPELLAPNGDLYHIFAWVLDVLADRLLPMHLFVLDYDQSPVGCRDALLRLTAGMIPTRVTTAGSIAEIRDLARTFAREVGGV

Turning to `CCc1cn([C@@H]2O[C@H](CNC(=O)C(C)Oc3ccc(Cl)cc3Cl)[C@@H](O)[C@@H]2F)c(=O)[nH]c1=O` (mixture of isomers) [Compound B], in data set [1] (setting [3]), the IC50 amounted to 4 nM.
For `CCc1cn([C@H]2C[C@H](O)[C@@H](CNC(=O)C(C)Oc3ccc(Cl)cc3Cl)O2)c(=O)[nH]c1=O` (single isomer, unassigned) [compound A, diastereoisomer b], in data set [2], the “Oral bioavailability (rat)” value is “too low to calculate”.
Molecule `CCc1cn([C@@H]2O[C@H](CNC(=O)[C@H](C)Oc3cc(OC)c(Cl)cc3Cl)[C@@H](O)[C@@H]2F)c(=O)[nH]c1=O` [Compound (I), 1-[5-[2(S)-(2,4-dichloro-5-methoxy-phenoxy)propionamido]-2,5-dideoxy-2-fluoro-β-D-arabino-furanosyl]-5-ethyluracil] returned an IC50 in data set [1] of 0.18 nM. The bioavailability in data set [2] stood at 26%.
In the case of `CCc1cn([C@H]2C[C@H](O)[C@@H](CNC(=O)C(C)Oc3ccc(Cl)cc3Cl)O2)c(=O)[nH]c1=O` (mixture of isomers) [Compound A], the IC50 in data set [1] (setting [3]) turned out to be 3.7 nM.
Turning to `CCc1cn([C@@H]2O[C@H](CNC(=O)C(C)Oc3ccc(Cl)cc3Cl)[C@@H](O)[C@@H]2F)c(=O)[nH]c1=O` (single isomer, unassigned) [Compound B, diastereoisomer b], the “Oral bioavailability (rat)” value in data set [2] came out at 12.9%.
Regarding `CCc1cn([C@@H]2O[C@H](CNC(=O)C(C)Oc3ccc(Cl)cc3Cl)[C@@H](O)[C@@H]2F)c(=O)[nH]c1=O` (single isomer, unassigned) [Compound B, diastereoisomer a], the bioavailability in data set [2] was found to be 14.4%.
In turn, `CCc1cn([C@H]2C[C@H](O)[C@@H](CNC(=O)C(C)Oc3ccc(Cl)cc3Cl)O2)c(=O)[nH]c1=O` (single isomer, unassigned) [Compound A, diastereoisomer a] had a bioavailability in data set [2] of 2.84%.
